Measured values published in ChEMBL document CHEMBL3352182, “Discovery and Development of LX7101, a Dual LIM-Kinase and ROCK Inhibitor for the Treatment of Glaucoma” (ACS Med Chem Lett, 2015).

Tests used:
[1] = target: T1, LIM domain kinase 2 (Homo sapiens, UniProt P53671); assay: Inhibition of human full-length LIMK2 assessed as incorporation of P33 from ATP into biotinylated-cofilin substrate by scintillation counting analysis in presence of 2 uM ATP
[2] = Stability of the compound in 1:1 H2O/MeOH assessed as decomposition measured at 60 degC after 24 hrs by HPLC; format: physicochemical
[3] = target: T2, Rho-associated protein kinase 1 (Homo sapiens, UniProt Q13464); assay: Inhibition of human Rock1 assessed as incorporation of P33 from ATP into biotinylated-cofilin substrate by scintillation counting analysis in presence of 2 uM ATP
[4] = system: Mus musculus; assay: Reduction in dexamethasone-induced ocular hypertensive C57BL/6J-Tyr c-Brd x 129S5/SvEvBrd, F2 generation mouse assessed as intraocular pressure at 5 mg/ml, topical instillation measured after 2 hrs; format: functional, Eye
[5] = target: LIM domain kinase 1 (Homo sapiens, UniProt P53667); assay: Inhibition of human LIMK1 assessed as incorporation of P33 from ATP into biotinylated-cofilin substrate by scintillation counting analysis in presence of 2 uM ATP
[6] = Cmax in rat dosed topically; format: ADME, organism-based; conditions: in vivo, topical or ocular
[7] = Stability of the compound in aqueous solution formulation at 60 degC after 14 days; format: physicochemical; conditions: read-out: Stability
[8] = target: T2, Rho-associated protein kinase 1; assay: Inhibition of human Rock1 assessed as incorporation of P33 from ATP into biotinylated-cofilin substrate by scintillation counting analysis in presence of 200 uM ATP
[9] = target: T3, Rho-associated protein kinase 2 (Homo sapiens, UniProt O75116); assay: Inhibition of human Rock2 assessed as incorporation of P33 from ATP into biotinylated-cofilin substrate by scintillation counting analysis in presence of 200 uM ATP
[10] = target: T1, LIM domain kinase 2; assay: Inhibition of human full-length LIMK2 assessed as incorporation of P33 from ATP into biotinylated-cofilin substrate by scintillation counting analysis in presence of 200 uM ATP
[11] = target: T3, Rho-associated protein kinase 2; assay: Binding affinity to human Rock2
[12] = target: T3, Rho-associated protein kinase 2; assay: Inhibition of human Rock2 assessed as incorporation of P33 from ATP into biotinylated-cofilin substrate by scintillation counting analysis in presence of 2 uM ATP
[13] = target: T1, LIM domain kinase 2; assay: Binding affinity to human LIMK2

T1 sequence (P53671 whole entry, the tested form may be a part): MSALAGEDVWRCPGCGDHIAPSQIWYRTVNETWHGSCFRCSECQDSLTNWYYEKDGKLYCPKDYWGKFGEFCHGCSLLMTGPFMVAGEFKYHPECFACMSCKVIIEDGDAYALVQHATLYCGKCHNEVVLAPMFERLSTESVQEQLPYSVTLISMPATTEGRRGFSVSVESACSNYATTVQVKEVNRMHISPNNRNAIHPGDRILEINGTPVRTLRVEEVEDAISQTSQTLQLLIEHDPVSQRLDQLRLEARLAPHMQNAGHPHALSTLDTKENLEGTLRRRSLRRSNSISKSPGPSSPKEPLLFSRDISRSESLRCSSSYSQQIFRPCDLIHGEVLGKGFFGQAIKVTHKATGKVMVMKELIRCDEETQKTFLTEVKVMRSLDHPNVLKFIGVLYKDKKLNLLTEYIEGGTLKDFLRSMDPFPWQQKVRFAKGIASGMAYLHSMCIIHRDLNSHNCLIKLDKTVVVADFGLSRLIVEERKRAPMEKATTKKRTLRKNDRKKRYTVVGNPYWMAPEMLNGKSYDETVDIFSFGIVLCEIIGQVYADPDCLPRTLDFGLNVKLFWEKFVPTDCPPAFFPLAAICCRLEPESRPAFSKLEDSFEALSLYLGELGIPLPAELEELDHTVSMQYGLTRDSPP
T3 sequence (O75116 whole entry, the tested form may be a part): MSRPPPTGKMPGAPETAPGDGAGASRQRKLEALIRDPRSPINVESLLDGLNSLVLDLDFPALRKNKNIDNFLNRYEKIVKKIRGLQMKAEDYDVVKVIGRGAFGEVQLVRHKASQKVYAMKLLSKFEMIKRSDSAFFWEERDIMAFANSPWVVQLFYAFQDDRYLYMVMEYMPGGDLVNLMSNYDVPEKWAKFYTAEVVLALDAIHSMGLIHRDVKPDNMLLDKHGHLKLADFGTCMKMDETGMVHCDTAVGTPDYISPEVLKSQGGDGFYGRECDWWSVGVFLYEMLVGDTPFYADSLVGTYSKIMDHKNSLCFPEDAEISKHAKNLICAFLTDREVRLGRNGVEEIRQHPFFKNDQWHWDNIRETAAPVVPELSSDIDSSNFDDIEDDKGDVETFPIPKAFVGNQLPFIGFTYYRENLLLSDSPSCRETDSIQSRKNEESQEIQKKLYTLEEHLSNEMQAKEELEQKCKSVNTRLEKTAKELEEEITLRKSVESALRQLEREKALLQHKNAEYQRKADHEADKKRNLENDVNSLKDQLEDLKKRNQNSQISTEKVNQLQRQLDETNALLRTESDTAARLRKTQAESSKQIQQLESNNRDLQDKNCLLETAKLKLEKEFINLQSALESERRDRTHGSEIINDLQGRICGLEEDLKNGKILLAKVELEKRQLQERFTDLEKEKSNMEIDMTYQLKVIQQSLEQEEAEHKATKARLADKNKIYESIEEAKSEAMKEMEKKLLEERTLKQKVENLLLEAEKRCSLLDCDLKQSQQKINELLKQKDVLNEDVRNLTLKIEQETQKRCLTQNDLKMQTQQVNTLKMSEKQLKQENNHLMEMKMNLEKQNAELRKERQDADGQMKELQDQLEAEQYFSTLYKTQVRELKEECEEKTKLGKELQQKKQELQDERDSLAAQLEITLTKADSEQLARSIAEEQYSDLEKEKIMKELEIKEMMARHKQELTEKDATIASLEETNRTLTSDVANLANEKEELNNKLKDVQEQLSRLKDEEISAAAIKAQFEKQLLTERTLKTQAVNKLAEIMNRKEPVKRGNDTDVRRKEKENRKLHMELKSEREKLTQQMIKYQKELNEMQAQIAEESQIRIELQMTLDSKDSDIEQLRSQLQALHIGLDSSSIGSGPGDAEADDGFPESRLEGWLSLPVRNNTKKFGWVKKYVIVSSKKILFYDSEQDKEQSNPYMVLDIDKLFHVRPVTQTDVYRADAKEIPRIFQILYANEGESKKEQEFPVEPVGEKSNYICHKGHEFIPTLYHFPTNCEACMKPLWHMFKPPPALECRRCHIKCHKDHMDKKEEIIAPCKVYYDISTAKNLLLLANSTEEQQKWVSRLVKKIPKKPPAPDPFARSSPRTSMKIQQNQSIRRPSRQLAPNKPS
T2 sequence (Q13464 whole entry): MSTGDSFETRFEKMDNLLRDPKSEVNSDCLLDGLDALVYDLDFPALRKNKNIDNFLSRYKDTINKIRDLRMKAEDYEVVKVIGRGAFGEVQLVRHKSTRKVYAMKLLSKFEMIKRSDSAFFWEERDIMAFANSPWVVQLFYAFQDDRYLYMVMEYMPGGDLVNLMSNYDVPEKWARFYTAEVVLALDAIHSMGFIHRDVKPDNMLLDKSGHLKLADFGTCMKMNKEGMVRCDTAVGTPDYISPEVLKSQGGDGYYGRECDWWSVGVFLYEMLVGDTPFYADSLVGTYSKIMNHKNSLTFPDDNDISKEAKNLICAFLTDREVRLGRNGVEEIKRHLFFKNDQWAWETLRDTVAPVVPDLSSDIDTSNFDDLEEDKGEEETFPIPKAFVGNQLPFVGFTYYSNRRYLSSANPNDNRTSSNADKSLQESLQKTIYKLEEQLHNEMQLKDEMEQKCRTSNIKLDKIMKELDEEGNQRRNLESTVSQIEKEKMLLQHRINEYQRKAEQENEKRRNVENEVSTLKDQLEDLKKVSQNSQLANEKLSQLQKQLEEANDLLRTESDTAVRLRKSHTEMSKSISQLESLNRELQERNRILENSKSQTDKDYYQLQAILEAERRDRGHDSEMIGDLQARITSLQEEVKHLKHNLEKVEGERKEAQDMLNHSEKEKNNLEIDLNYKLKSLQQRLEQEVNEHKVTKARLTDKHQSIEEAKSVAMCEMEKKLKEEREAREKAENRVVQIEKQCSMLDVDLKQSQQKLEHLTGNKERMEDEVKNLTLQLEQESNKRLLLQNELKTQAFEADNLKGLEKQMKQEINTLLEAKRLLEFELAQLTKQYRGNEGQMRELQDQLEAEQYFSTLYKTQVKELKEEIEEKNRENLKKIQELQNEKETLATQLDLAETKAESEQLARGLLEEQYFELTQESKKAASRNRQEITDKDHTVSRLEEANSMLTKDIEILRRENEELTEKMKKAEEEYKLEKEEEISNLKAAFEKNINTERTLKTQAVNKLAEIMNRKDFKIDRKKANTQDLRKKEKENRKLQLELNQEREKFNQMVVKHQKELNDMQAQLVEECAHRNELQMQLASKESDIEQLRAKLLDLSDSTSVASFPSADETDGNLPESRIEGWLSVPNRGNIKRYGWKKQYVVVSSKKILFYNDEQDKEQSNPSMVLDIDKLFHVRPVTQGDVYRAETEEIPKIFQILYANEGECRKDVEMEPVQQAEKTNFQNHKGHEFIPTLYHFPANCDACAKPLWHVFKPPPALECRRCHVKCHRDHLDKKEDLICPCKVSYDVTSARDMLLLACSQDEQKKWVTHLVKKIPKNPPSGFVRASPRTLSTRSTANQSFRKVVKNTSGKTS
Sequence of LIM domain kinase 1 (P53667 whole entry, the tested form may be a part): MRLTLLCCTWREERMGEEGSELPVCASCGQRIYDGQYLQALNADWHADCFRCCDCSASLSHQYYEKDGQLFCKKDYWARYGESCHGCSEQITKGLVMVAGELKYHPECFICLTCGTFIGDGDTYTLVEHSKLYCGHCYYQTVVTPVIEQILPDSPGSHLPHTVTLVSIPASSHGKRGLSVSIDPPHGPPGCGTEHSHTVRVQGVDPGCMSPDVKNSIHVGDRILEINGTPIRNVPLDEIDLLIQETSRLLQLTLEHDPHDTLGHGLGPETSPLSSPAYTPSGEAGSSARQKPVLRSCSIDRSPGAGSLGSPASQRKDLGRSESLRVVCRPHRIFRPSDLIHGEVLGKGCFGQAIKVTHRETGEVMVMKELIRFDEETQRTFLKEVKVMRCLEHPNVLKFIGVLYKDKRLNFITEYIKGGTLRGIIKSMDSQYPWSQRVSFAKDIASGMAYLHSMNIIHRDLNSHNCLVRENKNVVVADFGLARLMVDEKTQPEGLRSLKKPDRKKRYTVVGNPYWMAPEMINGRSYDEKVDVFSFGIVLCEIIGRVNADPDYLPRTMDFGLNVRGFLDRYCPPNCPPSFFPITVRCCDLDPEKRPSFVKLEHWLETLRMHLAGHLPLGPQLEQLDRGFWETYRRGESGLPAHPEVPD

SMILES | IC50 [1] [nM] | also measured
Cc1c[nH]c2ncnc(N3CCN(C(=O)N[C@@H](C)c4ccccc4)[C@@H](C)C3)c12 | 9.9 | –
COc1cccc(NC(=O)N2CCN(c3ncnc4[nH]cc(C)c34)C[C@@H]2C)c1 | 2.7 | –
Cc1c[nH]c2ncnc(N3CCN(C(=O)Nc4ccccc4)[C@@H](C)C3)c12 | 1.2 | Stability [2]: Unstable
Cc1c[nH]c2ncnc(N3CCN(C(=O)Cc4ccccc4)[C@@H](C)C3)c12 | 660 | Stability [2]: Stable
Cc1c[nH]c2ncnc(N3CCN(C(=O)N[C@H](C)c4ccccc4)[C@@H](C)C3)c12 | 180 | –
Cc1c[nH]c2ncnc(N3CCN(C(=O)Nc4cccc(OC(=O)N(C)C)c4)C(C(C)(C)C)C3)c12 (centres undefined) | 26 | –
Cc1c[nH]c2ncnc(N3CCN4C(=O)N(c5ccccc5)CC4C3)c12 (centres undefined) | > 1000 | –
Cc1c[nH]c2ncnc(N3CCC(C(=O)Nc4cccc(OC(C)C)c4)CC3)c12 | 330 | –
C=CCC1(C(=O)Nc2cccc(Cl)c2)CCN(c2ncnc3[nH]cc(C)c23)CC1 | 1.9 | –
Cc1c[nH]c2ncnc(N3CCC(C)(C(=O)Nc4cccc(C(C)(C)C)c4)CC3)c12 | 3.2 | –
C=CCC1(C(=O)Nc2cccc(OC(=O)N(C)C)c2)CCN(c2ncnc3[nH]cc(C)c23)CC1 | 2.2 | –
Cc1c[nH]c2ncnc(N3CCC(C)(C(=O)Nc4cccc(OC(=O)N(C)C)c4)CC3)c12 | 4.8 | –
Cc1c[nH]c2ncnc(N3CCC(O)(C(=O)Nc4cccc(OC(=O)N(C)C)c4)CC3)c12 | 138 | –
Cc1c[nH]c2ncnc(N3CCC(C(=O)Nc4cccc(OC(=O)N(C)C)c4)(N(C)C)CC3)c12 | 5.1 | –
COCCOCC1(C(=O)Nc2cccc(OC(=O)N(C)C)c2)CCN(c2ncnc3[nH]cc(C)c23)CC1 | 2.7 | IC50 [3]: > 2800 nM; Activity [4]: -1.8 mmHg
Cc1c[nH]c2ncnc(N3CCC(Cc4c[nH]cn4)(C(=O)Nc4cccc(OC(=O)N(C)C)c4)CC3)c12 | 1 | IC50 [3]: 514 nM; Activity [4]: -3.5 mmHg
Cc1c[nH]c2ncnc(N3CCC(CCN(C)C)(C(=O)Nc4cccc(OC(=O)N(C)C)c4)CC3)c12 | 7.3 | IC50 [5]: 134 nM; IC50 [3]: 139 nM; Activity [4]: -3.4 mmHg
Cc1c[nH]c2ncnc(N3CC[C@H](C(=O)Nc4cccc(OC(=O)N(C)C)c4)[C@@H](C)C3)c12 (relative stereo) | 210 | –
Cc1c[nH]c2ncnc(N3CC[C@H](C(=O)Nc4cccc(OC(=O)N(C)C)c4)[C@H](C)C3)c12 (relative stereo) | 110 | –
Cc1c[nH]c2ncnc(N3CCC(CN)(C(=O)Nc4cccc(OC(=O)N(C)C)c4)CC3)c12 [LX-7101] | 4.3 | Cmax [6]: 12 nM; remaining at 336 h [7]: 99%; IC50 [8]: 2200 nM; IC50 [9]: 340 nM; IC50 [3]: 69 nM; IC50 [10]: 7.5 nM; Kd [11]: < 1000 nM; IC50 [12]: 32 nM; Kd [13]: < 1000 nM; Activity [4]: -4.2 mmHg
